# System: ducksalad (Heteranthera limosa)
# Test: Test C flooded paddy test
# Assay type: in vivo
# Settings: Flood; for Plant response rating (scale of 0 to 100), Ducksalad: 0 is no effect, 100 is complete control
# Procedure, shortened: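 Visual 0–100 injury rating versus controls (0 = no effect, 100 = complete control) at 13 to 15 d. 2-leaf-stage plants; pots flooded 3 cm over soil surface, test compound added to paddy water; greenhouse.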
structure (smiles),measurement,setting,value
O=C1NCC(c2cccc(OC(F)(F)C(F)F)c2)C1C(=O)Nc1cccc(F)c1F (racemic) [Compound 697],"Plant response rating, Ducksalad","31 g ai/ha, scale 0 to 100 (0 no effect, 100 complete control), 13 to 15 d",40
same,"Plant response rating (scale of 0 to 100), Ducksalad",62 g ai/ha,40
same,"Plant response rating (scale of 0 to 100), Ducksalad",125 g ai/ha,60
same,"Plant response rating (scale of 0 to 100), Ducksalad",250 g ai/ha,100
